According to paper PMC12348585, “Semi-Synthesis, Anti-Leukemia Activity, and Docking Study of Derivatives from 3α,24-Dihydroxylup-20(29)-en-28-Oic Acid” (Molecules, 2025):
Read-outs that look alike come from different tables or passages of the source.

Tests used:
JURKAT = experiment: Cell viability assay (DAPI, flow cytometry), JURKAT; type: cell-based; details: for IC50: Homo sapiens, Jurkat, 48 h, mean ± SEM, N/A: not active; for SI: selectivity index, JURKAT: ratio of IC50 in the MNC line over IC50 in the leukemia cell line
Protocol: (§1) Cell lines were cultured in RPMI 1640 medium (Roswell Park Memorial Institute medium) supplemented with 10% fetal bovine serum (FBS) and 1% penicillin–streptomycin. Cultures were maintained at 37 °C in a humidified incubator with 5% CO2. All biological evaluations were performed using cell between passages 3 and 4. All compounds were dissolved in dimethyl sulfoxide (DMSO) at a concentration of 20 mg/mL. In all assays, culture medium containing 0.1% DMSO was used as the negative control, while dasatinib was included as the positive control. Normal mononuclear cells (MNCs) were included as the normal cell control. All experiments were performed in triplicate. Leukemic cell lines and normal mononuclear cells (MNCs) were used to evaluate the cytotoxicity of the compounds. Leukemic cells (1 × 10^5 cells/well) were cultured in 96-well plates and treated with increasing concentrations of compounds (0.02, 0.2, 2.0, and 20 µM) for 48 h. After incubation, both leukemic cells and MNCs were collected, washed with phosphate-buffered saline (PBS), and stained with DAPI (500 ng/mL) for 15 min in darkness, following the manufacturer’s instructions. Fluorescence was analyzed using a FACSVerse flow cytometer (BD Bioscience, San Jose, CA, USA). Flow cytometry data were analyzed using FlowJo^TM software (version 10.9). […] All experiments were performed in triplicate, and results were expressed as means ± standard errors of the means (SEMs). Statical analysis was performed using one-way analysis of variance (ANOVA), followed by Dunnett’s post hoc test to compare treated groups against the control.

[1] = Cell viability assay in normal mononuclear cells; type: cell-based, human; details: human
Protocol: (§2) All compounds were dissolved in dimethyl sulfoxide (DMSO) at a concentration of 20 mg/mL. In all assays, culture medium containing 0.1% DMSO was used as the negative control, while dasatinib was included as the positive control. Normal mononuclear cells (MNCs) were included as the normal cell control. All experiments were performed in triplicate. Normal mononuclear cells (MNCs) were isolated from peripheral blood mononuclear cells obtained from healthy human donors. Cell collection was conducted in accordance with institutional guidelines, including written informed consent from each participant. All procedures were approved by Ethics and Scientific Committee of the Mexican Institute of Social Security (IMSS, ethical approval number: CNIC R-2021-785-025). The MNCs were purified using FicollPaque Plus (Pharmacia Biotech, Uppsala, Sweden) by centrifugation at 400× g for 30 min at room temperature, following the manufacturer’s protocol. The resulting cells were resuspended in RPMI-1640 medium supplemented with 10% fetal bovine serum (FBS) and counted using a hemocytometer after trypan blue staining, confirming a viability of 95% [56]. […] After incubation, both leukemic cells and MNCs were collected, washed with phosphate-buffered saline (PBS), and stained with DAPI (500 ng/mL) for 15 min in darkness, following the manufacturer’s instructions. Fluorescence was analyzed using a FACSVerse flow cytometer (BD Bioscience, San Jose, CA, USA). Flow cytometry data were analyzed using FlowJo^TM software (version 10.9). […] All experiments were performed in triplicate, and results were expressed as means ± standard errors of the means (SEMs). Statical analysis was performed using one-way analysis of variance (ANOVA), followed by Dunnett’s post hoc test to compare treated groups against the control.

JURKAT cell line = experiment: Apoptosis assay (annexin V-FITC/DAPI flow cytometry), JURKAT; type: cell-based
Protocol: (§3) Since compound T1c was the only derivative that decreased the cell viability of leukemic cells (IC50 ≤ 20 µΜ), without affecting viability in normal MNC cells, its mode of action to exert cytotoxic effects was evaluated by flow cytometry techniques, determining the apoptotic effect at 48 h, using ½ IC50 and IC50 concentrations obtained in the viability assay in the different leukemia cell lines. Dasatinib at different concentrations was included as a positive control. Cell death was quantified by dual staining with annexin V-FITC and DAPI. Annexin V binds to externalized phosphatidylserine residues during early and late apoptosis, whereas DAPI penetrates membrane-compromised cells, distinguishing between late apoptotic and necrotic cells. The total percentage of apoptotic cells was calculated as the sum of early and late apoptotic populations. The results were normalized to 100% with respect to the negative control.
(§4) Apoptosis induction was evaluated by flow cytometry. Cells (1 × 10^5 cells/well) were cultured in 96-well plates and exposed to the compounds at two concentrations (½ and 1 × IC50). After 48 h of treatment, the cells were washed with phosphate-buffered saline (PBS) and stained with annexin V-FITC (BD Bioscience) for 15 min in the dark. Following a second PBS wash, the cells were stained with DAPI (500 ng/mL) for 15 min in darkness. The stained samples were subsequently analyzed on a FACSVerse cytometer (BD Bioscience, San Jose, CA, USA).

CCRF-CEM = experiment: Cell viability assay (DAPI, flow cytometry), CCRF-CEM; type: cell-based; details: for IC50: Homo sapiens, CCRF-CEM, 48 h, mean ± SEM, N/A: not active; for SI: selectivity index, CCRF-CEM: ratio of IC50 in the MNC line over IC50 in the leukemia cell line
Protocol: as §1

THP-1 cell line = experiment: Apoptosis assay (annexin V-FITC/DAPI flow cytometry), THP-1; type: cell-based
Protocol: as §3, §4

CCRF-CEM cell line = experiment: Apoptosis assay (annexin V-FITC/DAPI flow cytometry), CCRF-CEM; type: cell-based
Protocol: as §3, §4

[2] = system: leukemia cell lines (CCRF-CEM, REH, JURKAT, MOLT-4, THP-1); experiment: Cell viability assay, all leukemia cell lines tested (summary statements); type: cell-based
Protocol: as §1

MOLT-4 cell line = experiment: Apoptosis assay (annexin V-FITC/DAPI flow cytometry), MOLT-4; type: cell-based
Protocol: as §3, §4

MOLT-4 = experiment: Cell viability assay (DAPI, flow cytometry), MOLT-4; type: cell-based; details: Homo sapiens, MOLT-4; 48 h; mean ± SEM; N/A: not active
Protocol: as §1

REH = experiment: Cell viability assay (DAPI, flow cytometry), REH; type: cell-based; details: for IC50: Homo sapiens, REH, 48 h, mean ± SEM, N/A: not active; for SI: selectivity index, REH: ratio of IC50 in the MNC line over IC50 in the leukemia cell line
Protocol: as §1

THP-1 = experiment: Cell viability assay (DAPI, flow cytometry), THP-1; type: cell-based; details: for IC50: Homo sapiens, THP-1, 48 h, mean ± SEM, N/A: not active
Protocol: as §1

[3] = system: peripheral blood mononuclear cells (MNCs); experiment: Cell viability assay in normal mononuclear cells; type: cell-based, human
Protocol: as §2

HL-60 cells = system: HL-60 cells; set-up: method as in PMID 36080390; details: cited from earlier work
K562 cells = system: K562 cells; set-up: method as in PMID 36080390; details: cited from earlier work
[4] = 48 h, summary over CCRF-CEM, REH, JURKAT, MOLT-4, THP-1
[5] = positive control (dasatinib), 48 h
[6] = THP-1, positive control (dasatinib), 48 h
[7] = MOLT-4, positive control (dasatinib), 48 h

C=C(C=O)C1CCC2(C(=O)O)CCC3(C)C(CCC4C5(C)CCC(O)C(C)(CO)C5CCC43C)C12 (stereo not drawn) [Compound T1c, 3α,24-dihydroxy-30-oxolup-20(29)-en-28-oic acid]
IC50 (JURKAT): 18.7 ± 1.4 µM | SI: selectivity index, JURKAT (JURKAT): 71.46 | IC50 at 48 h [1]: > 200 µM | apoptosis rate (early + late) (JURKAT cell line; IC50, 48 h): 96.37 ± 0.49% | early apoptotic cells (JURKAT cell line; IC50, 48 h): 47.61% | late apoptotic cells (JURKAT cell line; IC50, 48 h): 48.72% | apoptosis rate (early + late) (JURKAT cell line; ½ IC50, 48 h): 67.14 ± 2.18% | early apoptotic cells (JURKAT cell line; ½ IC50, 48 h): 30.60% | late apoptotic cells (JURKAT cell line; ½ IC50, 48 h): 36.55% | IC50 (CCRF-CEM): 17.8 ± 1 µM | SI: selectivity index, CCRF-CEM (CCRF-CEM): 75.02 | apoptosis rate (early + late) (THP-1 cell line; THP-1, IC50, 48 h): 52.23 ± 1.69% | early apoptotic cells (THP-1 cell line; THP-1, IC50, 48 h): 22.84% | late apoptotic cells (THP-1 cell line; THP-1, IC50, 48 h): 29.39% | apoptosis rate (early + late) (THP-1 cell line; THP-1, ½ IC50, 48 h): 29.40 ± 2.66% | early apoptotic cells (THP-1 cell line; THP-1, ½ IC50, 48 h): 14.50% | late apoptotic cells (THP-1 cell line; THP-1, ½ IC50, 48 h): 14.90% | apoptosis rate (early + late) (CCRF-CEM cell line; IC50, 48 h): 97.13 ± 0.36% | early apoptotic cells (CCRF-CEM cell line; IC50, 48 h): 16.92% | late apoptotic cells (CCRF-CEM cell line; IC50, 48 h): 80.21% | apoptosis rate (early + late) (CCRF-CEM cell line; ½ IC50, 48 h): 62.40 ± 1.57% | early apoptotic cells (CCRF-CEM cell line; ½ IC50, 48 h): 16.98% | late apoptotic cells (CCRF-CEM cell line; ½ IC50, 48 h): 45.42% | IC50 ([2]; 48 h, summary over CCRF-CEM, REH, JURKAT, MOLT-4, THP-1, read-out: IC50 across all leukemia cell lines tested): 12.9 to 24.9 µM | SI (selectivity against leukemia cell lines vs MNCs) ([2]; summary statement): > 10 | apoptosis rate (early + late) (MOLT-4 cell line; MOLT-4, IC50, 48 h): 94.58 ± 0.45% | early apoptotic cells (MOLT-4 cell line; MOLT-4, IC50, 48 h): 30.12% | late apoptotic cells (MOLT-4 cell line; MOLT-4, IC50, 48 h): 64.46% | apoptosis rate (early + late) (MOLT-4 cell line; MOLT-4, ½ IC50, 48 h): 69.91 ± 2.17% | early apoptotic cells (MOLT-4 cell line; MOLT-4, ½ IC50, 48 h): 41.15% | late apoptotic cells (MOLT-4 cell line; MOLT-4, ½ IC50, 48 h): 28.76% | IC50 (MOLT-4): 13.9 ± 0.7 µM | IC50 (REH): > 20 µM | SI: selectivity index, REH (REH): 53.55 | IC50 (THP-1): 12.9 ± 0.1 µM | SI: selectivity index, THP-1 (THP-1; ratio of IC50 in the MNC line over IC50 in the leukemia cell line): 103.46

C=C(CO)C1CCC2(C(=O)O)CCC3(C)C(CCC4C5(C)CCC(O)C(C)(CO)C5CCC43C)C12 (stereo not drawn) [Compound T1d, 3α,24,30-trihydroxylup-20(29)-en-28-oic acid]
IC50 MNCs [3]: no activity | IC50 across all leukemia cell lines tested [2, 4]: no activity

C=C(C)C1CCC2(C(=O)O)CCC3(C)C(CCC4C5(C)CCC(OC(C)=O)C(C)(CO)C5CCC43C)C12 (stereo not drawn) [Compound T1e, 3α-acetyl-24-hydroxylup-20(29)-en-28-oic acid]
IC50 MNCs [3]: no activity | IC50 across all leukemia cell lines tested [2, 4]: no activity

C=C(C=O)[C@@H]1CC[C@]2(C(=O)O)CC[C@]3(C)C(CCC4[C@@]5(C)CC[C@@H](O)[C@@](C)(CO)C5CC[C@]43C)C12 (stereo partly drawn) [Compound T2, 3α,23-dihydroxy-30-oxolup-20(29)-en-28-oic acid]
IC50 (JURKAT): > 20 µM | SI: selectivity index, JURKAT (JURKAT): 8.56 | IC50 at 48 h [1]: > 200 µM | IC50 (CCRF-CEM): > 20 µM | SI: selectivity index, CCRF-CEM (CCRF-CEM): 19.48 | HL-60 cell viability (HL-60 cells; at 102 µM): 88.35 ± 3.85% | HL-60 cell viability (HL-60 cells; at 204 µM): 85.15 ± 3.05% | IC50 (REH): > 20 µM | SI: selectivity index, REH (REH): 11.40 | K562 cell viability (K562 cells; at 102 µM): 88.6 ± 0.40% | K562 cell viability (K562 cells; at 204 µM): 24.3 ± 1.95%

Cc1nc(Nc2ncc(C(=O)Nc3c(C)cccc3Cl)s2)cc(N2CCN(CCO)CC2)n1 [Dasatinib, dasatinib, reference compound]
IC50 (JURKAT): 5.26 ± 0.5 µM | apoptosis rate (early + late) (JURKAT cell line; [5]): 97.19 ± 0.11% | early apoptotic cells (JURKAT cell line; [5]): 0.59% | late apoptotic cells (JURKAT cell line; [5]): 96.60% | IC50 (CCRF-CEM): 10.8 ± 1.2 µM | apoptosis rate (early + late) (THP-1 cell line; [6]): 32.14 ± 3.15% | early apoptotic cells (THP-1 cell line; [6]): 7.21% | late apoptotic cells (THP-1 cell line; [6]): 24.93% | early apoptotic cells (MOLT-4 cell line; [7]): 1.40% | late apoptotic cells (MOLT-4 cell line; [7]): 94.74% | apoptosis rate (early + late) (MOLT-4 cell line; MOLT-4, positive control (dasatinib), 48 h, normalized to negative control): 96.13 ± 0.71% | IC50 (MOLT-4): 2.63 ± 0.1 µM | IC50 (REH): 5.43 ± 0.3 µM | IC50 (THP-1): 4.66 ± 0.3 µM
